# Data published in patent US6090542A, “Process for inhibiting the transcription of genes” (Boehringer Ingelheim International GmbH, priority 1993, dated 2000).
# Columns and labels:
# [1] = test system: nuclear-factor oct-1; assay: EMSA of constitutive DNA binding activity in 7OZ/3 cells; assay type: cell-based, mouse; conditions: 7OZ/3 cells treated with TPCK
# Method: 7OZ/3 cells (ATCC No. TIB 158) were cultivated in RPMI-1640 medium (Gibco BRL), supplemented by 10% FCS (Gibco BRL) and 50 μM 2-mercaptoethanol. 2 ml aliquots with approx. 2-3×10^6 of suspended cells was treated with 50 ng/ml PMA (Sigma) for various periods. The treatment was interrupted by immediate centrifugation (5 s in an Eppendorf Microfuge) and cooling on ice. The cell pellets were lysed with 60 μl of a high-salt extraction buffer, containing the non-ionic detergent nonidet P-40 (Baeuerle and Baltimore, 1988b). The supernatant of a 15 minute centrifugation at 13.000 rpm in an Eppendorf Microfuge was analysed by Western blotting and EMSA (electrophoretic mobility shift assay). For SDS-PAGE and Western blotting 30 μl aliquots of the extracts were mixed with 15 μl SDS sample buffer (Laemmli, 1970), boiled and subjected to a SDS-PAGE on 12.5% polyacrylamide minigels (Biorad). The proteins were transferred by using a so-called semi-dry blotting device (Biorad; 1 h at 15V/2.5 mA/cm2) from the gels onto IMMOBILON-P-filter (0.45 μm; Millipore). The efficiency of the blot was checked by protein staining of the filters with Ponceau S (Serva). The filters were blocked overnight in a Tris-buffered saline solution, containing 0,1% (v/v) TWEEN-20 (TBST), 5% low-fat milk powder (Nestle) and 1% BSA. […]
# [2] = test system: NF-KB; assay: Activation of NF-KB with TNF-α in various other cell lines; assay type: cell-based
# [3] = test system: NF-KB; assay: EMSA of NF-KB DNA binding activity in total cell extracts of stimulated 7OZ/3 cells; assay type: cell-based, mouse; conditions: 7OZ/3 cells
# Method: 7OZ/3 cells (ATCC No. TIB 158) were cultivated in RPMI-1640 medium (Gibco BRL), supplemented by 10% FCS (Gibco BRL) and 50 μM 2-mercaptoethanol. 2 ml aliquots with approx. 2-3×10^6 of suspended cells was treated with 50 ng/ml PMA (Sigma) for various periods. The treatment was interrupted by immediate centrifugation (5 s in an Eppendorf Microfuge) and cooling on ice. The cell pellets were lysed with 60 μl of a high-salt extraction buffer, containing the non-ionic detergent nonidet P-40 (Baeuerle and Baltimore, 1988b). The supernatant of a 15 minute centrifugation at 13.000 rpm in an Eppendorf Microfuge was analysed by Western blotting and EMSA (electrophoretic mobility shift assay). For SDS-PAGE and Western blotting 30 μl aliquots of the extracts were mixed with 15 μl SDS sample buffer (Laemmli, 1970), boiled and subjected to a SDS-PAGE on 12.5% polyacrylamide minigels (Biorad). The proteins were transferred by using a so-called semi-dry blotting device (Biorad; 1 h at 15V/2.5 mA/cm2) from the gels onto IMMOBILON-P-filter (0.45 μm; Millipore). The efficiency of the blot was checked by protein staining of the filters with Ponceau S (Serva). The filters were blocked overnight in a Tris-buffered saline solution, containing 0,1% (v/v) TWEEN-20 (TBST), 5% low-fat milk powder (Nestle) and 1% BSA. The filter was then incubated for one hour at ambient temperature with anti IkB-α IgG in a dialysed eluate of the IkB-α affinity column and diluted by 1:100 in the blocking buffer. After washing for 30 minutes in TBST the filter was incubated in a 1:4000 solution of goat-anti-rabbit IgG/horseradish-peroxidase conjugate (Biorad) in blocking buffer. After washing for 30 minutes in TBST the filter was treated with ECL detecting reagent (Amersham) and exposed (Kodak XR film, less than 1 minute). For EMSA 2 μl aliquots of the extracts were added to a binding mixture, resulting in a final concentration of […], […], pH 7.9, […] dithiothreitol, […] phenylmethylsulfonylfluoride (PMSF), 0.2% NONIDET P-40, 5% FICOLL, 20 μg BSA, 3 μg Poly (dl-dC) and 10.000 cpm (Cerenkov counting method) of a ^32 P marked double-stranded KB-oligonucleotide probe (Gibco BRL). The specificity of the protein DNA complex was confirmed by competition experiments and supershifting with a polyclonal antibody, recognising the C-terminal 100 amino acids of Rel-A (p65). After 20 minutes of incubation on ice the samples were subjected to electrophoresis on native 4% polyacrylamide gels, run in 0.5× TBE. The dried gels were exposed (Kodak XR film, -70° C., overnight).
# Cell cultures, extract production, SDS-PAGE and Western blotting were carried out according to example 1. The cells were […] in 25 μm TPCK or TLCK (both from Sigma), and pre-treated in dimethylsulfoxide (DMSO). The control cultures received an equivalent amount of DMSO.
# The results of the experiments are shown in FIG. 4: A: Effect of TPCK on the induction by PMA. The cells were treated without (left panel) or in presence of TPCK with PMA for the stipulated periods. The cell extracts were tested for the DNA binding activity of NF-KB using EMSA (top panel) and for the IkB-α protein quantity using Western blotting (bottom panel). The position of the NF-KB-DNA complex in a section of a fluorogram of a native gel is shown by a filled arrowhead. […] B: Effect of TPCK on the activation of NF-KB by IL-1β (I), LPS (L) and PMA (P) in 7OZ/3 cells; in control cells (Co). The cells were treated with TPCK for 10 minutes before stimulation (lanes 6-8) or for an additional 10 minutes after stimulation (lanes 10-12; 30 minutes with IL-1β and PMA or 60 minutes with LPS). The total cell extracts of control cells (lanes 1-4) and cells treated with TPCK (lanes 5-12) were tested for the DNA binding activity of NF-KB using EMSA; a section of a fluorogram of a native gel is shown. […] C: Effect of TLCK on the activation of NF-KB by PMA. […]
# [4] = test system: IkB-α; assay: Western blotting of IkB-α in extracts of 7OZ/3 cells; assay type: cell-based, mouse
# [5] = test system: 7OZ/3 cells; conditions: 10 μg/ml; cited from earlier work
# [6] = test system: IkB-α; assay: Western blot analysis of IkB-α in HeLa cells after TNF-α stimulation; assay type: cell-based, human
# Method: The 7OZ/3 cells were treated with 50 E/ml IL-1β (Boehringer Mannheim) or with 15 μg/ml LPS (Sigma). Human HeLa cells were cultivated in DMEM, supplemented with 10%FCS and 1% L-glutamine and treated with 200 E/ml human recombinant TFN-α (genzyme).
# As protease inhibitors Z-Ile-Glu(Ot-Bu)-Ala-leucinal (NBIG) and the chemically related substance Z-Leu-leucinal (Cbz-L-L) were used (Z standing for benzyloxycarbonyl).
# In the figure the slower migrating form of IkB-α is identified with an asterisk.
# [7] = test system: IL-6; assay: IL-6 in the cell supernatant of stimulated HeLa cells (ELISA); assay type: cell-based, human; conditions: stimulus alone (TNF 200 E/ml or PMA 50 ng/ml)
# Method: (§1) The principle of the test arrangement corresponded to that of the previous examples.
# (§2) The cells were stimulated--with or without 30 minutes of pre-treatment with 100 μmol NBIG--with TNF (200 E/ml) or with PMA (50 ng/ml) and the concentration of IL-6 or IL-8 was measured in the cell supernatant at various intervals using ELISA (British Biotechnology Products Ltd.).
# [8] = test system: IL-8; assay: IL-8 in the cell supernatant of stimulated HeLa cells (ELISA); assay type: cell-based, human; conditions: 120', stimulus alone (TNF 200 E/ml or PMA 50 ng/ml)
# Method: as §1, §2
compound,measurement,setting,value
"Cc1ccc(S(=O)(=O)N[C@@H](Cc2ccccc2)C(=O)CCl)cc1 [TPCK, p-tosyl-L-phenylalaninechloromethylketone]","constitutive DNA binding activity, including nuclear-factor oct-1",[1],not significantly influenced
same,activation of NF-KB with TNF-α,[2],effective in preventing
same,ID50 (NF-KB-DNA binding activity),[3]; PMA treatment,approx. 8 μM
same,activation of NF-KB by IL-IB and LPS,[3]; inhibitor before stimulation,effective in preventing
same,suppression of NF-KB-DNA binding activity,"[3]; one-hour treatment with 25 μM, subsequent PMA treatment",completely suppress
same,"NF-KB activation, inhibitor given after stimulation","[3]; treatment after stimulation with PMA, IL-1 or LPS",hardly impaired
same,degradation of IkB-α in PMA treated cells (Western blot),"[4]; 7OZ/3 cells, TPCK, PMA",completely prevent
C[C@@H]1C[C@@H]([C@H](O)CC2CC(=O)NC(=O)C2)C(=O)[C@@H](C)C1 [cycloheximide],inhibition of protein synthesis,[5],90%
same,binding of NF-KB to DNA,"[3]; one-hour treatment with cycloheximide, no PMA",induced only slightly
same,reoccurrence of IkB-α 40 minutes after PMA treatment,"[4]; 7OZ/3 cells pre-treated with cycloheximide, then PMA",prevents
same,IkB-α detected by Western blotting,"[4]; 7OZ/3 cells, one-hour treatment with cycloheximide, no PMA",large amounts
same,half-life of IkB-α,"[4]; cycloheximide-treated 7OZ/3 cells, without PMA, quantitative Western blotting",approx. 138 minutes
C=C1[C@@H](O)[C@@H]2O[C@]3(CC[C@H](/C=C/[C@@H](C)[C@@H]4CC(C)=C[C@@]5(O[C@H](C[C@@](C)(O)C(=O)O)CC[C@H]5O)O4)O3)CC[C@H]2O[C@@H]1[C@@H](O)C[C@H](C)[C@H]1O[C@@]2(CCCCO2)CC[C@H]1C [okadaic acid],quicker migrating non-phosphorylated form of IkB-α,"[6]; 100 nM, together with NBIG",disappear completely
IL-1β: inflammatory cytokine used as inducer of NF-KB,decay of IkB-α,[4]; 7OZ/3 cells,induced a decay
TNF-α,decay of IkB-α,[6]; HeLa cells,induced a decay
same,time after stimulation at which most of the IkB-α had decayed,[6]; HeLa cells,≤ 5 min
same,IL-6,[7]; 15',875 pg/mL
same,IL-6,[7]; 120',6750 pg/mL
same,IL-8,[8],52 pg/mL
